Results on three molecules are retold here after patent publication US9388224B2, “Compositions for preserving insulin-producing cells and insulin production and treating diabetes” (VANDERBILT UNIVERSITY, priority 2011, dated 2016).

Bridge positions count the residues as written; N and C are the ends. Ends that are not written are not given here. Peptide text beside a SMILES is read from it.

Data set [1] can be described thus: Anti-cSN50 peptide antibody induction (ELISA). The conditions noted are these: limit of detection 10 ng/mL. The format is in vivo, NOD mice. On the technique in general: In an ELISA, binding on a coated surface is turned into a signal by an enzyme label.
The nature of data set [2]: Continued peptide delivery in other disease models, toxicity. The format is in vivo. The conditions noted are these: up to 8 weeks, health, survival, weight gain, liver enzymes, blood cell counts normal. An excerpt: Reduction or complete elimination of islet-destructive autoreactive T and B cells may be useful in treating T1D and potentially other autoimmune diseases. Other autoimmune disorders include Systemic Lupus Erythematosus, Multiple Sclerosis, Rheumatoid Arthritis, Crohn Diseases, and Ulcerative Collitis. Under conditions of metabolic, inflammatory, and oxidant stress, beta cell mass may be further controlled by important interactions between bone marrow-derived cells and islet beta cells. Transcriptional modulation of these interactions via targeting of the nuclear import machinery represents an important new opportunity for therapeutic development. Even though cSN50 can modulate nuclear transport of several stress-responsive transcription factors that utilize importin alpha 1/karyopherin alpha 5 (as well as other importins/karyopherins, e.g., importin alpha 5/karyopherin) for nuclear trafficking, intracellular delivery of the Nuclear Transport Modifier is rapid and restricted to the relatively short intracellular persistence of the injected cargo (Hawiger J., (1999) Current Opinion in Chem. Biology 3:89-94). Despite high intensity dosing of cSN50 in the protocols disclosed herein, short-term or long-term adverse effects were not observed. […] In preliminary studies, spontaneous disease was reversed in 40% of the NOD mice during a continuing NTM treatment for 3 weeks.

In a further data set the test system is NOD mice. Put plainly: Toxicity observation and clinical chemistry in treated NOD mice.
In data set [3] the test system is autoimmune diabetes in NOD mice. Put plainly: Autoimmune diabetes progression in cyclophosphamide-synchronized NOD mice (blood glucose). It counts as in vivo. The conditions noted are these: general statement, experiments described herein. An excerpt: NOD/LtJ, NOD-BDC2.5 and C57BL/6 mice were purchased from the Jackson Laboratories (Bar Harbor, Me.) at 6-8 weeks of age. All mice were housed and maintained according to the guidelines for use and care of laboratory animals as set forth by Vanderbilt University and regulated via the Vanderbilt IACUC. All NOD mice were monitored twice weekly for the development of diabetes by blood glucose measurement with FreeStyle® FastTake test strips (Abbott Laboratories, Abbott Park, Ill.). Two consecutive glucose measurements >220 mg/dl constituted a diagnosis of diabetes. A colony of NOD mice kept by a collaborating laboratory in the same animal suite has a spontaneous diabetes incidence of 80-90% in females by 30 weeks of age indicating an animal environment that is conducive for diabetes development.
At 10-11 weeks of age, female NOD mice received an intraperitoneal bolus injection of 200 mg/kg cyclophosphamide (Sigma). Cyclophosphamide was prepared by reconstitution of powder in sterile saline for injection.
45 h after diabetes synchronization with cyclophosphamide, treatment with cSN50 or control was initiated. Mice receiving cSN50 were given 35 μg/g of cSN50 i.p. every two hours for the next 48 h. Control mice received either saline or non-cell penetrating cN50 peptide at molar equivalent (20 μg/g). cN50 peptide, contains the cyclized NLS but lacks the membrane translocating motif. […]

A short description of data set [4]: In vivo intracellular peptide delivery to the pancreas (confocal microscopy). Conditions: single i.p. injection (0.7 mg FITC-labeled peptide/mouse or FITC of equivalent fluorescence); 2 h after injection. The arrangement: species or system NOD mice. An excerpt:
Cell-penetrating peptide (cSN50, MW=3149; cSN50.1, MW=2986), and non-cell-penetrating peptide (cN50, MW=1651), were synthesized, purified, filter-sterilized, and analyzed as described elsewhere (Torgerson et al. (1998) J Immunol 161: 6084-6092; Liu et al. (2000) J Biol Chem 275: 16774-16778). To monitor the intracellular delivery of peptides to pancreas, cSN50 peptide was coupled with fluorescein isothiocyanate (FITC, Pierce) according to the manufacturer's protocol.
For in vivo detection of fluorescein-labeled peptides in the pancreas, NOD mice were sacrificed at 2 h after intraperitoneal (i.p.) injection of 0.7 mg of FITC-labeled cSN50 peptide/mouse. The pancreata were washed with saline and prepared for cryosections (10 μm thickness). Control solution of FITC alone with equivalent fluorescence units was injected separately to track distribution to the pancreas.
Intracellular delivery of a Nuclear Transport Modifier to the pancreas reduces islet inflammation (insulitis). […] It was first determined whether cSN50 would be delivered to the pancreas, the primary site of autoimmune attack against beta cells in pancreatic islets. […] Using confocal microscopy, the pancreatic delivery of FITC-labeled cSN50 peptide following a single intraperitoneal (i.p.) injection was assessed. […]

Take `CSCC[C@@H]1NC(=O)[C@H](CC(C)C)NC(=O)[C@H](CCCCN)NC(=O)[C@H](CCC(N)=O)NC(=O)[C@H](CCCNC(=N)N)NC(=O)[C@H](CCCCN)NC(=O)[C@H](CCCNC(=N)N)NC(=O)[C@H](CCC(N)=O)NC(=O)[C@H](C(C)C)NC(=O)[C@H](Cc2ccc(O)cc2)NC(=O)[C@@H](NC(=O)[C@@H]2CCCN2C(=O)[C@H](C)NC(=O)[C@H](CC(C)C)NC(=O)[C@H](CC(C)C)NC(=O)[C@H](C)NC(=O)[C@H](CC(C)C)NC(=O)[C@H](CC(C)C)NC(=O)[C@@H](NC(=O)[C@H](C)NC(=O)[C@@H]2CCCN2C(=O)[C@H](CC(C)C)NC(=O)[C@H](CC(C)C)NC(=O)[C@H](C)NC(=O)[C@@H](NC(=O)[C@H](C)NC(=O)[C@H](C)N)C(C)C)C(C)C)CSSC[C@@H](C(=O)O)NC(=O)[C@@H]2CCCN2C1=O` [cSN50] (H-AAVALLPAVLLALLAPCYVQRKRQKLMPC-OH; disulfide 17-29; N-terminus and C-terminus assumed): the “anti-cSN50 peptide antibody induction” value in data set [1] is listed as “not detected”. In addition, in data set [2], the “toxicity on continued delivery” value is on record as “without evidence of toxicity”. For the same molecule, the “overt signs of toxicity” value with NOD mice (365 days of observation after 48 h treatment) was “did not display overt signs of toxicity”. Further, in the data set on NOD mice (after intensive treatment), the acquired infection result is listed as “no signs of acquired infection” and the weight gain entry is listed as “normal weight gain”. In the data set on NOD mice (serum daily, 7 mice per group, vs cN50 control), the BUN level result is “not significantly different from control”. Besides, the ALT level entry in the data set on NOD mice (serum daily, 7 mice per group, vs control) is “not significantly different from control”. The “alkaline phosphatase, creatinine, creatine kinase, and total bilirubin” value in the data set with NOD mice (serum, 7 mice per group) is reported as “below the limit of detection”.
Take “AAVALLPAVLLALLAPCVQRKRQKLMPC (disulfide 17-28 (inferred)) [cSN50.1, cSN50 with the tyrosine at position 18 removed to increase solubility]”: the “islet protection from immune destruction” value in data set [3] was “effectively protected islets from immune destruction”.
Take fluorescein isothiocyanate [FITC]: the “delivery to / distribution in the pancreas” value in data set [4] is “did not penetrate the organ”.
